Test results as given in ChEMBL document CHEMBL3992552, “Mechanisms of action and structure-activity relationships of cytotoxic flavokawain derivatives” (Bioorg Med Chem, 2017).
Calls of active or inactive are those of the source. The rule behind the calls is not given here.

System: HaCaT
Experiment: Cell cycle arrest in human HaCaT cells harboring […] p53 assessed as accumulation at S phase at 25 uM measured after 48 hrs by Hoechst/BrdU staining based fluorescence assay (reference value: 52.3%)
Format: functional
Conditions: not given

Row | SMILES | Activity
1 | COc1cc(O)c(C(=O)/C=C/c2ccccc2SC)c(OC)c1 | 30%

System: PC-3
Experiment: Induction of apoptosis in human PC3 cells harboring p53 mutant assessed as upregulation of cyclinB1 after 48 hrs by Hoechst staining based assay
Format: functional, cell-based
Conditions: not given

Row | SMILES | Activity
2 | COc1cc(O)c(C(=O)/C=C/c2ccccc2SC)c(OC)c1 | Active

System: MDA-MB-231
Experiment: Cell cycle arrest in human MDA-MB-231 cells harboring p53 mutant assessed as mitotic index at 10 uM measured after 48 hrs by Hoechst staining based fluorescence assay (reference value: 2.1)
Format: functional
Conditions: not given

Row | SMILES | Activity
3 | COc1cc(O)c(C(=O)/C=C/c2ccccc2SC)c(OC)c1 | inactive

System: PC-3
Experiment: Cell cycle arrest in human PC3 cells harboring p53 mutant assessed as accumulation at S phase at 10 uM measured after 48 hrs by Hoechst/BrdU staining based fluorescence assay (reference value: 40.8%)
Format: functional
Conditions: not given

Row | SMILES | Activity
4 | COc1cc(O)c(C(=O)/C=C/c2ccccc2SC)c(OC)c1 | 35%

System: MCF7
Experiment: Induction of apoptosis in human MCF7 cells harboring wild-type p53 assessed as increase in early apoptosis at 2 times IC50 after 24 hrs by YoPro/propidium iodide/Hoechst staining based assay
Format: functional, cell-based
Conditions: not given

Row | SMILES | Activity
5 | COc1cc(O)c(C(=O)/C=C/c2ccccc2SC)c(OC)c1 | Active

System: NCI-H727
Experiment: Cell cycle arrest in human NCI-H727 cells harboring p53 mutant assessed as accumulation at S phase at 10 uM measured after 48 hrs by Hoechst/BrdU staining based fluorescence assay (reference value: 40.3%)
Format: functional
Conditions: not given

Row | SMILES | Activity
6 | COc1cc(O)c(C(=O)/C=C/c2ccccc2SC)c(OC)c1 | 43%

System: Huh-7
Experiment: Cell cycle arrest in human HuH7 cells assessed as mitotic index at 25 uM measured after 48 hrs by Hoechst staining based fluorescence assay (reference value: 2.2)
Format: functional
Conditions: not given

Row | SMILES | Activity_index
7 | COc1cc(O)c(C(=O)/C=C/c2ccccc2SC)c(OC)c1 | 5.3

System: MDA-MB-231
Experiment: Cytotoxicity against human MDA-MB-231 cells assessed as cell viability after 48 hrs by Hoechst 33342 staining based assay
Format: functional
Conditions: MDA-MB-231, 48 h

Row | SMILES | IC50
8 | COc1cc(O)c(C(=O)/C=C/c2ccccc2SC)c(OC)c1 | > 20 µM

System: not listed separately
Experiment: Selectivity index, ratio of IC50 for human fibroblasts to IC50 for human RL cells
Conditions: not given

Row | SMILES | Ratio IC50
9 | COc1cc(O)c(C(=O)/C=C/c2ccccc2SC)c(OC)c1 | 4.1

System: PC-3
Experiment: Cell cycle arrest in human PC3 cells assessed as accumulation at M phase by Hoechst staining based fluorescence assay
Format: functional
Conditions: not given

Row | SMILES | Activity
10 | COc1cc(O)c(C(=O)/C=C/c2ccccc2SC)c(OC)c1 | Active

System: PC-3
Experiment: Cell cycle arrest in human PC3 cells harboring p53 mutant assessed as accumulation at S phase at 25 uM measured after 48 hrs by Hoechst/BrdU staining based fluorescence assay (reference value: 40.8%)
Format: functional
Conditions: not given

Row | SMILES | Activity
11 | COc1cc(O)c(C(=O)/C=C/c2ccccc2SC)c(OC)c1 | 31%

System: not listed separately
Experiment: Selectivity index, ratio of IC50 for human fibroblasts to IC50 for human HuH7 cells
Conditions: not given

Row | SMILES | Ratio IC50
12 | COc1cc(O)c(C(=O)/C=C/c2ccccc2SC)c(OC)c1 | 2.2

System: HaCaT
Experiment: Cell cycle arrest in human HaCaT cells harboring […] p53 assessed as accumulation at S phase at 10 uM measured after 48 hrs by Hoechst/BrdU staining based fluorescence assay (reference value: 52.3%)
Format: functional
Conditions: not given

Row | SMILES | Activity
13 | COc1cc(O)c(C(=O)/C=C/c2ccccc2SC)c(OC)c1 | 51%

System: not listed separately
Experiment: Selectivity index, ratio of IC50 for human fibroblasts to IC50 for human MCF7 cells
Conditions: not given

Row | SMILES | Ratio IC50
14 | COc1cc(O)c(C(=O)/C=C/c2ccccc2SC)c(OC)c1 | 2.3

System: HCT-116
Experiment: Cytotoxicity against human HCT116 cells assessed as cell survival at 50 uM after 48 hrs by Hoechst 33342 staining based assay relative to control
Format: functional
Conditions: HCT-116, 48 h, read-out: Survival

Row | SMILES | viability at 50 µM
15 | COc1cc(O)c(C(=O)/C=C/c2ccccc2SC)c(OC)c1 | 1%

System: Caco-2
Experiment: Cell cycle arrest in human Caco2 cells assessed as accumulation at S phase at 25 uM measured after 48 hrs by Hoechst/BrdU staining based fluorescence assay (reference value: […])
Format: functional
Conditions: not given

Row | SMILES | Activity
16 | COc1cc(O)c(C(=O)/C=C/c2ccccc2SC)c(OC)c1 | 37%

System: not listed separately
Experiment: Selectivity index, ratio of IC50 for human fibroblasts to IC50 for human HCT116 cells
Conditions: not given

Row | SMILES | Ratio IC50
17 | COc1cc(O)c(C(=O)/C=C/c2ccccc2SC)c(OC)c1 | 3.6

System: MCF7
Experiment: Induction of apoptosis in human MCF7 cells harboring wild-type p53 assessed as increase in late apoptosis at 2 times IC50 after 24 hrs by YoPro/propidium iodide/Hoechst staining based assay
Format: functional, cell-based
Conditions: not given

Row | SMILES | Activity
18 | COc1cc(O)c(C(=O)/C=C/c2ccccc2SC)c(OC)c1 | Active

System: HCT-116
Experiment: Cell cycle arrest in human HCT116 cells harboring wild-type p53 assessed as mitotic index at 25 uM measured after 48 hrs by Hoechst staining based fluorescence assay (reference value: 2.3)
Format: functional
Conditions: not given

Row | SMILES | Activity_index
19 | COc1cc(O)c(C(=O)/C=C/c2ccccc2SC)c(OC)c1 | 1.3

System: HaCaT
Experiment: Cytotoxicity against human HaCaT cells assessed as cell viability after 48 hrs by Hoechst 33342 staining based assay
Format: functional
Conditions: not given

Row | SMILES | IC50
20 | COc1cc(O)c(C(=O)/C=C/c2ccccc2SC)c(OC)c1 | 10.5 µM

System: Huh-7
Experiment: Cell cycle arrest in human HuH7 cells assessed as mitotic index at 10 uM measured after 48 hrs by Hoechst staining based fluorescence assay (reference value: 2.2)
Format: functional
Conditions: not given

Row | SMILES | Activity_index
21 | COc1cc(O)c(C(=O)/C=C/c2ccccc2SC)c(OC)c1 | 2.3

System: MDA-MB-231
Experiment: Cell cycle arrest in human MDA-MB-231 cells harboring p53 mutant assessed as accumulation at S phase at 10 uM measured after 48 hrs by Hoechst/BrdU staining based fluorescence assay (reference value: 42.2%)
Format: functional
Conditions: not given

Row | SMILES | Activity
22 | COc1cc(O)c(C(=O)/C=C/c2ccccc2SC)c(OC)c1 | inactive

System: HCT-116
Experiment: Induction of apoptosis in human HCT116 cells harboring wild-type p53 assessed as upregulation of p21 measured after 48 hrs by Hoechst staining based fluorescence assay
Format: functional, cell-based
Conditions: not given

Row | SMILES | Activity
23 | COc1cc(O)c(C(=O)/C=C/c2ccccc2SC)c(OC)c1 | Active

System: PC-3
Experiment: Induction of apoptosis in human PC3 cells harboring p53 mutant assessed as increase in late apoptosis at 2 times IC50 after 48 hrs by YoPro/propidium iodide/Hoechst staining based assay
Format: functional, cell-based
Conditions: not given

Row | SMILES | Activity
24 | COc1cc(O)c(C(=O)/C=C/c2ccccc2SC)c(OC)c1 | Active

System: HCT-116
Experiment: Cell cycle arrest in human HCT116 cells harboring wild-type p53 assessed as accumulation at S phase at 25 uM measured after 48 hrs by Hoechst/BrdU staining based fluorescence assay (reference value: 68.4%)
Format: functional
Conditions: not given

Row | SMILES | Activity
25 | COc1cc(O)c(C(=O)/C=C/c2ccccc2SC)c(OC)c1 | 28%

System: MDA-MB-231
Experiment: Cell cycle arrest in human MDA-MB-231 cells harboring p53 mutant assessed as accumulation at S phase at 25 uM measured after 48 hrs by Hoechst/BrdU staining based fluorescence assay (reference value: 42.2%)
Format: functional
Conditions: not given

Row | SMILES | Activity
26 | COc1cc(O)c(C(=O)/C=C/c2ccccc2SC)c(OC)c1 | inactive

System: RL
Experiment: Cytotoxicity against human RL assessed as cell viability after 48 hrs by Hoechst 33342 staining based assay
Format: functional
Conditions: not given

Row | SMILES | IC50
27 | COc1cc(O)c(C(=O)/C=C/c2ccccc2SC)c(OC)c1 | 8.9 µM

System: NCI-H727
Experiment: Cell cycle arrest in human NCI-H727 cells harboring p53 mutant assessed as accumulation at S phase at 25 uM measured after 48 hrs by Hoechst/BrdU staining based fluorescence assay (reference value: 40.3%)
Format: functional
Conditions: not given

Row | SMILES | Activity
28 | COc1cc(O)c(C(=O)/C=C/c2ccccc2SC)c(OC)c1 | 12%

System: HaCaT
Experiment: Cell cycle arrest in human HaCaT cells harboring […] p53 assessed as mitotic index at 10 uM measured after 48 hrs by Hoechst staining based fluorescence assay (reference value: 2.6)
Format: functional
Conditions: not given

Row | SMILES | Activity_index
29 | COc1cc(O)c(C(=O)/C=C/c2ccccc2SC)c(OC)c1 | 3.1

System: not listed separately
Experiment: Selectivity index, ratio of IC50 for human fibroblasts to IC50 for human Caco2 cells
Conditions: not given

Row | SMILES | Ratio IC50
30 | COc1cc(O)c(C(=O)/C=C/c2ccccc2SC)c(OC)c1 | 3.8

System: Caco-2
Experiment: Cytotoxicity against human Caco2 cells assessed as cell survival at 50 uM after 48 hrs by Hoechst 33342 staining based assay relative to control
Format: functional
Conditions: Caco-2, 48 h, read-out: Survival

Row | SMILES | viability at 50 µM
31 | COc1cc(O)c(C(=O)/C=C/c2ccccc2SC)c(OC)c1 | 23%

System: HCT-116
Experiment: Cytotoxicity against human HCT116 cells assessed as cell viability after 48 hrs by Hoechst 33342 staining based assay
Format: functional
Conditions: HCT-116, 48 h

Row | SMILES | IC50
32 | COc1cc(O)c(C(=O)/C=C/c2ccccc2SC)c(OC)c1 | 10 µM

System: HaCaT
Experiment: Cytotoxicity against human HaCaT cells assessed as cell survival at 50 uM after 48 hrs by Hoechst 33342 staining based assay relative to control
Format: functional
Conditions: read-out: Survival

Row | SMILES | viability at 50 µM
33 | COc1cc(O)c(C(=O)/C=C/c2ccccc2SC)c(OC)c1 | 22%

System: MDA-MB-231
Experiment: Cytotoxicity against human MDA-MB-231 cells assessed as cell survival at 50 uM after 48 hrs by Hoechst 33342 staining based assay relative to control
Format: functional
Conditions: MDA-MB-231, 48 h, read-out: Survival

Row | SMILES | viability at 50 µM
34 | COc1cc(O)c(C(=O)/C=C/c2ccccc2SC)c(OC)c1 | 39%

System: NCI-H727
Experiment: Cytotoxicity against human NCI-H727 cells assessed as cell survival at 50 uM after 48 hrs by Hoechst 33342 staining based assay relative to control
Format: functional
Conditions: NCI-H727, 48 h, read-out: Survival

Row | SMILES | viability at 50 µM
35 | COc1cc(O)c(C(=O)/C=C/c2ccccc2SC)c(OC)c1 | 8%
